From patent publication US20240115670A1, “FIBROBLAST ACTIVATION PROTEIN MODULATION TO ALTER IMMUNE CELL MIGRATION AND TUMOR INFILTRATION” (Georgetown University, priority 2021, published 2024)

What was measured:
NK92-GFP cells [1] = assay: NK92-GFP extravasation from zebrafish blood vessels; format: in vivo; conditions: fish bathed in 10 uM Cpd60 vs vehicle; 1 hour after injection
Experimental: The zebrafish embryos were anesthetized with 0.0003016% tricaine (Pentair Aquatic Eco-Systems, Sigma-Aldrich, St. Louis, MO, USA) in the Georgetown-Lombardi Animal Shared Resource and positioned within our zebrafish stereotax on a proprietary microinjection plate. NK92-GFP cells were injected into the pericardium using an air driven Picospritzer Ha microinjector (General Valve/Parker Hannifin) under a stereoscope. After transplantation, embryos were allowed to recover for 1 hour at 33° C. Confocal imaging was performed on an Olympus IX-71 inverted microscope with a color CCD camera in the Georgetown-Lombardi Microscopy Shared Resource. Fluorescent imaging was performed on Keyence BZ-X. Images were taken at 10× across multiple z-stacks. […] NK extravasation quantification was performed by counting the number of GFP cells outside red vasculature. NK extravasation quantification was performed blinded to the treatment conditions. […]
Zebrafish studies were conducted in accordance with NIH guidelines for the care and use of laboratory animals and were approved by the Georgetown University Institutional Animal Care and Use Committee. […] NK extravasation quantification was performed by counting the number of GFP cells outside red vasculature. NK extravasation quantification was performed blinded to the treatment conditions. […]

NK92-GFP cells [2] = assay: NK92-GFP infiltration into PDAC tumor spheroids; format: cell-based, human; conditions: 10 uM Cpd60, 4 hours
Experimental: PSC or PANC-1 spheroids were generated by plating 10,000 cells in a 0.1% agarose coated U-bottomed 96-well plate. PSC+PANC-1 spheroids were generated by plating 5,000 cells of each cell type. Aggregation was promoted by centrifuging the cells at 1000 rpm for 5 minutes. Cells incubated overnight at 37° C. The next day, 1,000 NK92-GFP cells were added per well and incubated for 4 hours at 37° C. Spheroids were imaged using the Olympus IX-71 Inverted Epifluorescent Microscope at 5×. Images were analyzed in FIJI. All images underwent identical contrast enhancement and background reduction. Then a line was drawn from spheroid edge to spheroid center and GFP intensity along that line was measured. Graphs of resulting data and statistical analysis were generated in Graphpad Prism 9.

PANC-1 cells = assay: NK cell lysis of PANC-1 cells in 2D cocultures; format: cell-based, human

`N#C[C@@H]1CC(F)(F)CN1C(=O)CNC(=O)c1ccnc2ccccc12` [Cpd60] was tested, and the “NK cell extravasation from the blood vessels” value (NK92-GFP cells [1]) was “significantly reduced”, the “NK cell content in PANC-1 spheroids” value (NK92-GFP cells [2]; any region) was “no effect” and the “NK cell content in PSC spheroids” value (NK92-GFP cells [2]; mid-edge and mid-center regions) was “significantly reduced”. The “NK cell content in PSC+PANC-1 spheroids” value (NK92-GFP cells [2]; mid-edge region) was “significantly reduced” and the “PANC-1 cell apoptosis in 2D cell cocultures with NK92” value (PANC-1 cells) was “no effect”.
